From patent US7199114B2, “Triterpene quaternary salts as biologically active surfactants” (The Regents of the University of Minnesota, priority 2002, dated 2007)
≈ marks a conversion by molar mass, not a printed value.

Experiments:
[1] = tested on: Enterococcus faecium Vancomycin-sensitive (first listed); test: Anti-bacterial activity, broth culture MIC; format: cell-based; conditions: Enterococcus faecium Vancomycin-sensitive (r11/r12), broth culture, triplicate; for MIC: read-out: Approximate Minimum Inhibitory Concentration, MIC
Protocol: (§1) Several uncharged or negatively charged triterpenes, and several positively charged triterpenes of the invention were tested for anti-bacterial activity against antibiotic-susceptible and antibiotic resistant strains of four types of bacteria of concern in clinics and hospitals. The triterpenes weres tested in broth culture in triplicate for ability to inhibit bacterial growth. The compounds tested are those listed below.
(§2) The lowest concentration which inhibits bacterial growth is referred to as the minimum inhibitory concentration (MIC), the standard measurement of anti-microbial activity.

[2] = tested on: Enterococcus faecium Vancomycin-sensitive (second listed); test: Anti-bacterial activity, broth culture MIC; format: cell-based; conditions: Enterococcus faecium Vancomycin-sensitive (r13/r14), broth culture, triplicate; for MIC: read-out: Approximate Minimum Inhibitory Concentration, MIC
Protocol: as §1, §2

[3] = tested on: Staphylococcus aureus Methicillin-resistant; test: Anti-bacterial activity, broth culture MIC; format: cell-based; conditions: Staphylococcus aureus Methicillin-resistant, broth culture, triplicate; for MIC: read-out: Approximate Minimum Inhibitory Concentration, MIC
Protocol: as §1, §2

[4] = tested on: Staphylococcus aureus Methicillin-sensitive; test: Anti-bacterial activity, broth culture MIC; format: cell-based; conditions: Staphylococcus aureus Methicillin-sensitive, broth culture, triplicate; for MIC: read-out: Approximate Minimum Inhibitory Concentration, MIC
Protocol: as §1, §2

[5] = tested on: dollar spot fungus; test: Turf plot trial at Clemson University (Example 85), area affected by dollar spot; format: in vivo, Agrostis stolonifera; conditions: 50 grams active ingredient per 1000 square feet
Protocol: (§3) Plots of creeping bentgrass, cv. “Pennlinks,” were treated with water based sprays of the test compounds. Sprays were delivered by CO2-charged sprayer to deliver the equivalent of 2 gallons of spray per 1000 sq. ft of plot area. Plots were 15 sq. ft. each, and treatments were mixed to apply material to 75 sq. ft (5 replicates), although only 4 replicates were treated. […] Daconil Ultrex® was applied at 3.2 oz./1000 sq. ft. for 14 days. The experiment used a randomized complete block design, with 4 replicates per treatment. Disease pressure was high. Pennlinks […] is moderately to highly susceptible to both dollar spot and brown patch. For brown patch, caused by Rhozoctonia sofani. a visual estimate of the percent of the plot area affected was recorded. Turf quality was estimated on a 1 to 9 scale, with 1 being worst and 9 being perfect. A rating of 6 is considered acceptable.
(§4) Plots of creeping bentgrass, cv. Pennlinks, were treated with water-based sprays as in Example 84 at Clemson University. Treatment application dates were May 7. May 14, May 28, and June 11. Plots were rated visually, estimating the percent of the area affected by dollar spot fungus […]. Turf quality was rated on a 1 to 9 scale, with 9 being perfect turf, as in Example 84. Disease pressure was moderately high to high when the trial was initiated, with existing dollar spot present.

[6] = Turf plot trial at Clemson University (Example 85), turf quality; format: in vivo, creeping bentgrass, cv. Pennlinks; conditions: 1 to 9 scale, 50 grams active ingredient per 1000 square feet
Protocol: as §3, §4

[7] = tested on: dollar spot fungus (Agrostis stolonifera); test: Turf plot trial at Clemson University (Example 85), area affected by dollar spot; format: in vivo; conditions: for % of area infected: 50 grams active ingredient per 1000 square feet
Protocol: as §3, §4

In the case of C=C(C)[C@@H]1CC[C@]2(CO)CC[C@]3(C)C(CCC4[C@@]5(C)CC[C@H](OC(=O)C[N+]67CCN(CC6)CC7)C(C)(C)C5CC[C@]43C)C12.[Cl-] (stereo partly shown) [Compound 6], the MIC [1] is reported as 5 µg/mL, the MIC [2] is reported as 10 µg/mL and the MIC [3] is reported as 2 µg/mL. It also gave an MIC [4] of 2 µg/mL.

In the case of C=C(C)[C@@H]1CC[C@]2(COC(=O)C(C)[N+]34CCN(CC3)CC4)CC[C@]3(C)C(CCC4[C@@]5(C)CC[C@H](OC(=O)C(C)[N+]67CCN(CC6)CC7)C(C)(C)C5CC[C@]43C)C12.Cl.Cl (stereo partly shown) [Compound 22, Lup-20(29)-ene-3,28-bis[N-(1,4-diazabicyclo [2.2.2]octyl)-2-propionate]-dichloride], the “% of area infected” value ([5]; Table 5 c2, Jun. 3, 2002) is reported as 24.5 a %, the “% of area infected” value ([5]; Table 5 c4, Jun. 3, 2002) is reported as 17.3 ab % and the “% of area infected” value ([5]; Table 6, May 8, 2002) is reported as 34.3 a %. The “% of area infected” value ([5]; Table 6, May 13, 2002) was 28.5 a %, the “% of area infected” value ([5]; Table 6, May 20, 2002) was 31.5 bc % and the “% of area infected” value ([5]; Table 6, May 27, 2002) was 32.0 ab %. The Turf quality ([6]; Table 5, Jun. 3, 2002) was 4.80 abc, the Turf quality ([6]; Table 5, Jun. 17, 2002) was 5.07 ab and the Turf quality ([6]; Table 5, May 27, 2002) was 3.05 b. For the same compound, the Turf quality ([6]; Table 6, May 8, 2002) was 3.00 a, the Turf quality ([6]; Table 6, May 13, 2002) was 3.13 a and the Turf quality ([6]; Table 6, May 20, 2002) was 2.95 ab.

In the case of C=C(C)[C@@H]1CC[C@]2(COC(=O)C[N+](C)(C)CCCCCCCC)CC[C@]3(C)C(CCC4[C@@]5(C)CC[C@H](OC(=O)C[N+](C)(C)CCCCCCCC)C(C)(C)C5CC[C@]43C)C12.[Cl-].[Cl-] (stereo partly shown) [Compound 53, Lup-20(29)-ene-3,28-bis(octyldimethylammoniumacetate) dichloride], the “% of area infected” value ([5]; Table 5 c2, Jun. 3, 2002) is reported as 22.5 a %, the “% of area infected” value ([5]; Table 5 c4, Jun. 3, 2002) is reported as 19.5 ab % and the “% of area infected” value ([5]; Table 6, May 8, 2002) is reported as 33.5 a %. The “% of area infected” value ([5]; Table 6, May 13, 2002) was 28.5 a %, the “% of area infected” value ([5]; Table 6, May 20, 2002) was 27.3 bc % and the “% of area infected” value ([5]; Table 6, May 27, 2002) was 26.8 bcd %. It also gave a Turf quality ([6]; Table 5, Jun. 3, 2002) of 5.18 ab, a Turf quality ([6]; Table 5, Jun. 17, 2002) of 5.38 ab and a Turf quality ([6]; Table 5, May 27, 2002) of 3.60 ab. For the same compound, the Turf quality ([6]; Table 6, May 8, 2002) was 3.00 a, the Turf quality ([6]; Table 6, May 13, 2002) was 3.05 a and the Turf quality ([6]; Table 6, May 20, 2002) was 3.25 ab.

For C=C(C)[C@@H]1CC[C@]2(COC(=O)C[N+](C)(C)CCCCCCCCCCCCCC)CC[C@]3(C)C(CCC4[C@@]5(C)CC[C@H](OC(=O)C[N+](C)(C)CCCCCCCCCCCCCC)C(C)(C)C5CC[C@]43C)C12.[Cl-].[Cl-] (stereo partly shown) [Compound 55, Lup-20(29)-ene-3,28-bis(tetradecyldimethylamoniumacetate) dichloride], the “% of area infected” value ([5]; Table 5 c2, Jun. 3, 2002) was 28.8 a %, the “% of area infected” value ([5]; Table 5 c4, Jun. 3, 2002) was 24.3 a % and the “% of area infected” value ([5]; Table 6, May 8, 2002) was 33.5 a %. For the same compound, the “% of area infected” value ([5]; Table 6, May 13, 2002) was 30.0 a %, the “% of area infected” value ([5]; Table 6, May 20, 2002) was 32.8 b % and the “% of area infected” value ([5]; Table 6, May 27, 2002) was 29.3 a-d %. It also gave a Turf quality ([6]; Table 5, Jun. 3, 2002) of 5.10 ab, a Turf quality ([6]; Table 5, Jun. 17, 2002) of 5.2 ab and a Turf quality ([6]; Table 5, May 27, 2002) of 3.38 ab. For the same compound, the Turf quality ([6]; Table 6, May 8, 2002) was 3.05 a, the Turf quality ([6]; Table 6, May 13, 2002) was 3.00 a and the Turf quality ([6]; Table 6, May 20, 2002) was 2.97 ab.

With C=C(C)[C@@H]1CC[C@]2(CO)CC[C@]3(C)C(CCC4[C@@]5(C)CC[C@H](OC(=O)C[N+](C)(CCCCCCCCCC)CCCCCCCCCC)C(C)(C)C5CC[C@]43C)C12.[Cl-] (stereo partly shown) [Compound 67, Betulin-3-(didecylmethylammoniumacetoxy) chloride] the “% of area infected” value ([7]; Table 5 c2, Jun. 3, 2002) was 13.0 b %, the “% of area infected” value ([7]; Table 5 c4, Jun. 3, 2002) was 9.0 b % and the “% of area infected” value ([7]; Table 6, May 8, 2002) was 28.3 a %. For the same compound, the “% of area infected” value ([7]; Table 6, May 13, 2002) was 26.0 a %, the “% of area infected” value ([7]; Table 6, May 20, 2002) was 24.3 c % and the “% of area infected” value ([7]; Table 6, May 27, 2002) was 21.0 d %. For the same compound, the “extent of dollar spot infection” value ([7]; by the end of the treatment trial, compared to the no treatment control (text summary of Tables 5 and 6)) was “best results”, the Turf quality ([6]; Table 5, Jun. 3, 2002) was 6.00 a and the Turf quality ([6]; Table 5, Jun. 17, 2002) was 5.80 a. The Turf quality ([6]; Table 5, May 27, 2002) was 4.85 a, the Turf quality ([6]; Table 6, May 8, 2002) was 3.20 a and the Turf quality ([6]; Table 6, May 13, 2002) was 3.17 a. For the same compound, the Turf quality ([6]; Table 6, May 20, 2002) was 3.55 a.

With C=C(C)[C@@H]1CC[C@]2(C)CC[C@]3(C)[C@H](CC[C@@H]4[C@@]5(C)C=C(O)C(=O)C(C)(C)[C@@H]5CC[C@]43C)[C@@H]12 [Compound 85, lupeneno-1-ene-2-ol, reference compound] the MIC [1] was 20 µg/mL (≈ 45.6 µM), the MIC [2] was 50 µg/mL (≈ 114 µM) and the MIC [3] was 100 µg/mL (≈ 228 µM). The MIC [4] was 50 µg/mL (≈ 114 µM).

In the case of C=C(C)C1CCC2(C)CCC3(C)C(CCC4C5(C)CCC(OC(=O)C=CC(=O)O)C(C)(C)C5CCC43C)C12 (stereo not shown) [Compound 86, lupeol-3-maleate, reference compound], the “Approximate Minimum Inhibitory Concentration, MIC” value [1] is reported as 10 µg/mL, the “Approximate Minimum Inhibitory Concentration, MIC” value ([1]; listed as lupeol-3-maleate) is reported as no more than 10 µg/mL and the “Approximate Minimum Inhibitory Concentration, MIC” value [2] is reported as 50 µg/mL.

In the case of C=C(C)C1CCC2(COC(=O)CCC(=O)O)CC[C@@]3(C)C(CCC4[C@@]5(C)CCC(OC(=O)CCC(=O)O)C(C)(C)C5CC[C@]43C)C12 (stereo partly shown) [Compound 91, betulin-3,28-disuccinate, reference compound], the “Approximate Minimum Inhibitory Concentration, MIC” value [4] is reported as 200 µg/mL.

With C=C(C)C1CCC2(COC(=O)CCC(=O)O)CC[C@@]3(C)C(CCC4[C@@]5(C)CCC(O)C(C)(C)C5CC[C@]43C)C12 (stereo partly shown) [Compound 92, betulin-28-succinate, reference compound] the “Approximate Minimum Inhibitory Concentration, MIC” value [4] was 50 µg/mL.

With C=C(C)[C@@H]1CC[C@]2(COC(=O)/C=C\C(=O)O)CC[C@]3(C)[C@H](CC[C@@H]4[C@@]5(C)CC[C@H](OC(=O)/C=C\C(=O)O)C(C)(C)[C@@H]5CC[C@]43C)[C@@H]12 [Compound 93, betulin-3,28-dimaleate, reference compound] the “Approximate Minimum Inhibitory Concentration, MIC” value [3] was 200 µg/mL and the “Approximate Minimum Inhibitory Concentration, MIC” value [4] was 200 µg/mL.

In the case of C=C(C)[C@@H]1CC[C@]2(COC(=O)/C=C\C(=O)O)CC[C@]3(C)[C@H](CC[C@@H]4[C@@]5(C)CC[C@H](O)C(C)(C)[C@@H]5CC[C@]43C)[C@@H]12 [Compound 94, betulin-28-maleate, reference compound], the “Approximate Minimum Inhibitory Concentration, MIC” value [1] is reported as 200 µg/mL, the “Approximate Minimum Inhibitory Concentration, MIC” value [2] is reported as 200 µg/mL and the “Approximate Minimum Inhibitory Concentration, MIC” value [4] is reported as 50 µg/mL.
